Data taken from patent publication US20040097595A1, “Phthalamide derivatives, insecticides for agricultural and horticultural use and method for application thereof” (priority 2001, published 2004).

Legend:
[1] = system: Diamond Back Moth (Plutella xylostella); assay: Test Example 1: insecticidal effect on diamond back moth, Chinese cabbage seedling with eggs immersed in liquid chemical; format: in vivo; details: eggs on Chinese cabbage seedling immersed about 30 seconds, six days after immersion, 25° C.
Text: Insecticidal Effect on Diamond Back Moth (Plutella xylostella)
Adult diamond back moths were released and allowed to oviposit on a Chinese cabbage seedling. Two days after the release, the seedling having the eggs deposited thereon was immersed for about 30 seconds in a liquid chemical prepared by diluting a preparation containing each compound listed in Table 1 or 2 as an active ingredient to adjust the prescribed concentration. After air-dryness, it was allowed to stand in a room thermostatted at 25° C. Six days after the immersion, the hatched insects were counted. The mortality was calculated according to the following equation and the insecticidal effect was judged according to the criterion shown below. The test was carried out with triplicate groups of 10 insects. [formula]

[2] = system: Common Cutworm (Spodoptera litura); assay: Test Example 2: insecticidal effect on common cutworm, cabbage leaf immersion; format: in vivo; details: cabbage leaf immersed, second-instar larvae, eight days after inoculation, 25° C.
Text: Insecticidal Effect on Common Cutworm (Spodoptera litura)
A piece of cabbage leaf (cultivar; Shikidori) was immersed for about 30 seconds in a liquid chemical prepared by diluting a preparation containing each compound listed in Table 1 or 2 as an active ingredient to adjust the prescribed concentration. After air-dryness, it was placed in a plastic Petri dish with a diameter of 9 cm and inoculated with second-instar larvae of common cutworm, after which the dish was closed and then allowed to stand in a room thermostatted at 25° C. Eight days after the inoculation, the dead and alive were counted. The mortality was calculated according to the following equation and the insecticidal effect was judged according to the criterion shown in Test Example 1. The test was carried out with triplicate groups of 10 insects. [formula]

| Structure (SMILES) | Test Example 1 insecticidal effect (mortality grade) ([1]; 5 ppm) | Test Example 1 insecticidal effect (mortality grade) ([1]; 50 ppm) | Test Example 2 insecticidal effect (mortality grade) ([2]; 5 ppm) | Test Example 2 insecticidal effect (mortality grade) ([2]; 50 ppm) | mortality at 5 ppm ([1]; Plutella xylostella, 144 h, 5 ppm, read-out: Test Example 1 insecticidal effect (mortality grade)) [%] | mortality at 50 ppm ([1]; Plutella xylostella, 144 h, 50 ppm, read-out: Test Example 1 insecticidal effect (mortality grade)) [%] | mortality at 5 ppm ([2]; Spodoptera litura, 192 h, 5 ppm, read-out: Test Example 2 insecticidal effect (mortality grade)) [%] | mortality at 50 ppm ([2]; Spodoptera litura, 192 h, 50 ppm, read-out: Test Example 2 insecticidal effect (mortality grade)) [%] |
| --- | --- | --- | --- | --- | --- | --- | --- | --- |
| CSCC(C)(C)NC(=O)c1c(I)cccc1C(=O)Nc1ccc(C(F)(F)F)cc1Cl [Compound 1-20] | A (Mortality 100%) | A (Mortality 100%) | A (Mortality 100%) | A (Mortality 100%) |  |  |  |  |
| C[S+]([O-])CC(C)(C)NC(=O)c1c(I)cccc1C(=O)Nc1ccc(C(F)(F)F)cc1Cl (centres unmarked) [Compound 1-21] | A (Mortality 100%) | A (Mortality 100%) | C (Mortality 89-80%) | A (Mortality 100%) |  |  |  |  |
| CC(C)(CS(C)(=O)=O)NC(=O)c1c(I)cccc1C(=O)Nc1ccc(C(F)(F)F)cc1Cl [Compound 1-22] | A (Mortality 100%) | A (Mortality 100%) | C (Mortality 89-80%) | A (Mortality 100%) |  |  |  |  |
| CSCC(C)(C)NC(=O)c1c(I)cccc1C(=O)Nc1ccc(-c2ccc(Cl)cc2)cc1Cl [Compound 1-38] | A (Mortality 100%) | A (Mortality 100%) | E (Mortality 49-0%) | A (Mortality 100%) |  |  |  |  |
| CSCC(C)(C)NC(=O)c1c(I)cccc1C(=O)Nc1ccc(OC(F)F)c(Cl)c1Cl [Compound 1-43] | A (Mortality 100%) | A (Mortality 100%) | A (Mortality 100%) | A (Mortality 100%) |  |  |  |  |
| C[S+]([O-])CC(C)(C)NC(=O)c1c(I)cccc1C(=O)Nc1ccc(OC(F)F)c(Cl)c1Cl (centres unmarked) [Compound 1-44] | A (Mortality 100%) | A (Mortality 100%) | E (Mortality 49-0%) | A (Mortality 100%) |  |  |  |  |
| CC(C)(CS(C)(=O)=O)NC(=O)c1c(I)cccc1C(=O)Nc1ccc(OC(F)F)c(Cl)c1Cl [Compound 1-45] | A (Mortality 100%) | A (Mortality 100%) | E (Mortality 49-0%) | A (Mortality 100%) |  |  |  |  |
| CSCC(C)(C)NC(=O)c1c(I)cccc1C(=O)Nc1ccc(OC(F)(F)Cl)cc1Cl [Compound 1-48] | A (Mortality 100%) | A (Mortality 100%) | A (Mortality 100%) | A (Mortality 100%) |  |  |  |  |
| C[S+]([O-])CC(C)(C)NC(=O)c1c(I)cccc1C(=O)Nc1ccc(OC(F)(F)F)cc1Cl (centres unmarked) [Compound 1-52, N^1-[2-chloro-4-(trifluoromethoxy)phenyl]-N^2-(1,1-dimethyl-2methylsulfinylethyl)-3-iodophthalamide] |  |  |  |  | 100 | 100 | 100 | 100 |
| CSCC(C)(C)NC(=O)c1c(I)cccc1C(=O)Nc1ccc(OC(F)(F)C(F)Cl)cc1Cl (centres unmarked) [Compound 1-58] | E (Mortality 49-0%) | A (Mortality 100%) | E (Mortality 49-0%) | A (Mortality 100%) |  |  |  |  |
| CSCC(C)(C)NC(=O)c1c(I)cccc1C(=O)Nc1ccc(OC(C(F)(F)F)C(F)(F)F)cc1Cl [Compound 1-64] | A (Mortality 100%) | A (Mortality 100%) | A (Mortality 100%) | A (Mortality 100%) |  |  |  |  |
| CSCC(C)(C)NC(=O)c1c(I)cccc1C(=O)Nc1ccc(OC(F)(F)C(F)C(F)(F)F)c(Cl)c1Cl (centres unmarked) [Compound 1-66, 3-iodo-N^1-[2,3-dichloro-4-(1,1,2,3,3,3-hexafluoropropoxy)phenyl]-N^2-[(1,1-dimethyl-2-methylthio)ethyl]phthalamide] | E (Mortality 49-0%) | A (Mortality 100%) | E (Mortality 49-0%) | A (Mortality 100%) |  |  |  |  |
| C[S+]([O-])CC(C)(C)NC(=O)c1c(I)cccc1C(=O)Nc1ccc(OC(F)(F)C(F)C(F)(F)F)cc1Cl (centres unmarked) [Compound 1-67] | A (Mortality 100%) | A (Mortality 100%) | E (Mortality 49-0%) | A (Mortality 100%) |  |  |  |  |
| CC(C)(CS(C)(=O)=O)NC(=O)c1c(I)cccc1C(=O)Nc1ccc(OC(F)(F)C(F)C(F)(F)F)cc1Cl (centres unmarked) [Compound 1-68] | A (Mortality 100%) | A (Mortality 100%) | E (Mortality 49-0%) | A (Mortality 100%) |  |  |  |  |
| CSCC(C)(C)NC(=O)c1c(I)cccc1C(=O)Nc1ccc(OC(F)(F)C(F)C(F)(F)F)c(Cl)c1Cl (centres unmarked) [Compound 1-69] | A (Mortality 100%) | A (Mortality 100%) | E (Mortality 49-0%) | A (Mortality 100%) |  |  |  |  |
| C[S+]([O-])CC(C)(C)NC(=O)c1c(I)cccc1C(=O)Nc1ccc(OC(F)(F)C(F)C(F)(F)F)c(Cl)c1Cl (centres unmarked) [Compound 1-70] | A (Mortality 100%) | A (Mortality 100%) | E (Mortality 49-0%) | A (Mortality 100%) |  |  |  |  |
| CC(C)(CS(C)(=O)=O)NC(=O)c1c(I)cccc1C(=O)Nc1ccc(OC(F)(F)C(F)C(F)(F)F)c(Cl)c1Cl (centres unmarked) [Compound 1-71] | A (Mortality 100%) | A (Mortality 100%) | E (Mortality 49-0%) | A (Mortality 100%) |  |  |  |  |
| CSCC(C)(C)NC(=O)c1c(I)cccc1C(=O)Nc1cc(Cl)c(OC(F)(Cl)C(F)(Cl)C(F)(F)F)cc1Cl (centres unmarked) [Compound 1-73] | E (Mortality 49-0%) | A (Mortality 100%) | E (Mortality 49-0%) | A (Mortality 100%) |  |  |  |  |
| CSCC(C)(C)NC(=O)c1c(I)cccc1C(=O)Nc1ccc(OC(F)(F)C(F)OC(F)(F)F)cc1Cl (centres unmarked) [Compound 1-74] | A (Mortality 100%) | A (Mortality 100%) | E (Mortality 49-0%) | A (Mortality 100%) |  |  |  |  |
| C[S+]([O-])CC(C)(C)NC(=O)c1c(I)cccc1C(=O)Nc1ccc(OC(F)(F)C(F)OC(F)(F)F)cc1Cl (centres unmarked) [Compound 1-75] | A (Mortality 100%) | A (Mortality 100%) | E (Mortality 49-0%) | A (Mortality 100%) |  |  |  |  |
| CC(C)(CS(C)(=O)=O)NC(=O)c1c(I)cccc1C(=O)Nc1ccc(OC(F)(F)C(F)OC(F)(F)F)cc1Cl (centres unmarked) [Compound 1-76] | A (Mortality 100%) | A (Mortality 100%) | E (Mortality 49-0%) | A (Mortality 100%) |  |  |  |  |
| CSCC(C)(C)NC(=O)c1c(I)cccc1C(=O)Nc1ccc(OC(F)(F)C(F)OC(F)(F)C(F)(F)C(F)(F)F)cc1Cl (centres unmarked) [Compound 1-81] | A (Mortality 100%) | A (Mortality 100%) | A (Mortality 100%) | A (Mortality 100%) |  |  |  |  |
| C[S+]([O-])CC(C)(C)NC(=O)c1c(I)cccc1C(=O)Nc1ccc(OC(F)(F)C(F)OC(F)(F)C(F)(F)C(F)(F)F)cc1Cl (centres unmarked) [Compound 1-82] | A (Mortality 100%) | A (Mortality 100%) | C (Mortality 89-80%) | A (Mortality 100%) |  |  |  |  |
